Results as given in patent publication US5342980A, “Fungicidal agents” (American Cyanamid Company, priority 1992, dated 1994).

Experiments:
Botrytis cinerea = test: In vivo fungicidal evaluation, Pepper Botrytis (PB); settings: 200 ppm, plants sprayed before inoculation
Alternaria solani = test: In vivo fungicidal evaluation, Tomato Early Blight (TEB); settings: 200 ppm, plants sprayed before inoculation
Rhizoctonia solani = test: In vitro fungicidal evaluation, growth inhibition (RHIZSO); type: cell-based; parameters: scale not given here; settings: 25 ppm, 3-4 days at 21° C.
Experimental: (§1) Test compounds are dissolved in acetone and dispersed into cell well plates containing a suspension of ground fungal mycelia in a nutrient broth. Assay plates are incubated for 3-4 days at 21° C. Growth inhibition is measured visually and is rated using the following scale:
(§2) Untreated controls, solvent blanks and reference standards are included in each test.
(§3) Assay fungi include the plant pathogens, Pythium ultimum (Pythul); Rhizoctonia solani (Rhizso); Fusarium oxysporum f. sp. cucumerinum (Fusoxc); and Pseudocercosporella herpotrichoides (Psdche).
(§4) When more than one test is run, the data are averaged.

Pyricularia oryzae = type: in vivo; settings: 200 ppm, plants sprayed before inoculation
Plasmopara viticola = test: In vivo fungicidal evaluation, Grape Downy Mildew (GDM); settings: 200 ppm, plants sprayed before inoculation
Pythium ultimum = test: In vitro fungicidal evaluation, growth inhibition (PYTHUL); type: cell-based; parameters: scale not given here; settings: 25 ppm, 3-4 days at 21° C.
Experimental: as §1, §2, §3, §4

[1] = system: Fusarium oxysporum f. sp. cucumerinum; test: In vitro fungicidal evaluation, growth inhibition (FUSOXC); type: cell-based; parameters: scale not given here; settings: 25 ppm, 3-4 days at 21° C.
Experimental: as §1, §2, §3, §4

[2] = system: Erysiphe graminis f. sp. tritici; test: In vivo fungicidal evaluation, Wheat Powdery Mildew (WPM); settings: 200 ppm, plants sprayed before inoculation
Venturia inaequalis = test: In vivo fungicidal evaluation, Apple Scab (AS); settings: 200 ppm, plants sprayed before inoculation
Cercospora beticola = test: In vivo fungicidal evaluation, Sugar Beet Cercospora (SBC); settings: plants sprayed before inoculation
[3] = system: Pseudocercosporella herpotrichoides; test: In vitro fungicidal evaluation, growth inhibition (PSDCHE); type: cell-based; parameters: scale not given here; settings: 25 ppm, 3-4 days at 21° C.
Experimental: as §1, §2, §3, §4

Structure (SMILES) | disease control rating, PB (Botrytis cinerea) | disease control rating, TEB (Alternaria solani) | growth inhibition rating, RHIZSO (Rhizoctonia solani) | disease control rating, RB (Pyricularia oryzae) | disease control rating, GDM (Plasmopara viticola) | growth inhibition rating, PYTHUL (Pythium ultimum) | growth inhibition rating, FUSOXC [1] | disease control rating, WPM [2] | disease control rating, AS (Venturia inaequalis) | disease control rating, SBC (Cercospora beticola; 200 ppm) | disease control rating, SBC (Cercospora beticola; 400 ppm) | growth inhibition rating, PSDCHE [3]
CC(C)(C)C(=O)C(=S)N([O-])C1CCCC1.CC(C)(C)C(=O)C(=S)N([O-])C1CCCC1.[Cu+2] [N-cyclopentyl-3,3-dimethyl-2-oxo-1-thiobutyrohydroxamic acid copper(+2) chelate] | 0.0 | 0.0 | 0.0 | 0.0 | 0.0 | 0.0 | 0.0 | 0.0 | 0.0 | 0.5 | 2.0 | 0.0
CC(C)(C)C(=O)C(=S)N(Cc1ccccc1)OC(=O)Nc1ccccc1 [Carbanilate ester of N-benzyl-3,3-dimethyl-2-oxo-1-thiobutyrohydroxamate] | – | – | 2.5 | – | – | 6.0 | 0.5 | – | – | – | – | 0.0
CC(C)(C)C(=O)C(=S)N(O)Cc1ccccc1 [N-benzyl-3,3-dimethyl-2-oxo-1-thiobutyrohydroxamic acid] | – | – | 4.5 | – | – | 7.0 | 3.5 | – | – | – | – | 7.0
CC(C)(C)C(=O)C(=S)N([O-])Cc1ccccc1.CC(C)(C)C(=O)C(=S)N([O-])Cc1ccccc1.[Cu+2] [N-benzyl-3,3-dimethyl-2-oxo-1-thiobutyrohydroxamic acid copper(+2) chelate] | – | – | 1.5 | – | – | 1.5 | 0.0 | – | – | – | – | 0.0
CC(C)(C)C(=O)C(=S)N([O-])Cc1ccccc1.CC(C)(C)C(=O)C(=S)N([O-])Cc1ccccc1.[Zn+2] [N-benzyl-3,3-dimethyl-2-oxo-1-thiobutyrohydroxamic acid zinc(+2) chelate] | 0.0 | 0.0 | 0.0 | 0.0 | 0.0 | 4.0 | 0.0 | 0.0 | 0.0 | 6.0 | – | 0.0
CC(C)(C)C(=O)C(=S)N(O)C1CCCC1.CC(C)(C)C(=O)C(=S)N(O)C1CCCC1.[Zn+2] [N-cyclopentyl-3,3-dimethyl-2-oxo-1-thiobutyrohydroxamic acid zinc(+2) chelate] | 0.0 | 0.0 | 3.3 | 0.0 | 0.0 | 7.0 | 3.7 | 0.0 | 0.0 | 2.3 | 1.0 | 3.0
CN(OC(=O)c1ccc(Cl)cc1)C(=S)C(=O)C(C)(C)C [p-Chlorobenzoate ester of N,3,3-trimethyl-2-oxo-1-thiobutyrohydroxamate] | 8.0 | 6.0 | 0.0 | 6.0 | 0.0 | 0.0 | 0.0 | 3.0 | 8.0 | 4.0 | – | 0.0
COC(=O)ON(C)C(=S)C(=O)C(C)(C)C [methylcarbonate ester of N,3,3-trimethyl-2-oxo-1thiobutyrohydroxamate] | 0.0 | 2.0 | 0.0 | 0.0 | 0.0 | 5.0 | 0.0 | 0.0 | 0.0 | 0.0 | – | 0.0
